Active and inactive are the calls of the source.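 Rule for the calls: active = mean IC50 below 20 µM; inactive = the rest.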

For the test, the target named is Hexokinase-1 (Homo sapiens) (UniProt P19367). Kind of test: HK1 enzyme inhibition by HKDC1 hits, SAR follow-up, selectivity assay for HKDC1 inhibitor project, biochemical, set 2, resazurin fluorescence coupled readout (AID 588356). The note with it: G6PDH/diaphorase resazurin fluorescence.
Hexokinase-1 (Homo sapiens), sequence (P19367 whole entry, looked up): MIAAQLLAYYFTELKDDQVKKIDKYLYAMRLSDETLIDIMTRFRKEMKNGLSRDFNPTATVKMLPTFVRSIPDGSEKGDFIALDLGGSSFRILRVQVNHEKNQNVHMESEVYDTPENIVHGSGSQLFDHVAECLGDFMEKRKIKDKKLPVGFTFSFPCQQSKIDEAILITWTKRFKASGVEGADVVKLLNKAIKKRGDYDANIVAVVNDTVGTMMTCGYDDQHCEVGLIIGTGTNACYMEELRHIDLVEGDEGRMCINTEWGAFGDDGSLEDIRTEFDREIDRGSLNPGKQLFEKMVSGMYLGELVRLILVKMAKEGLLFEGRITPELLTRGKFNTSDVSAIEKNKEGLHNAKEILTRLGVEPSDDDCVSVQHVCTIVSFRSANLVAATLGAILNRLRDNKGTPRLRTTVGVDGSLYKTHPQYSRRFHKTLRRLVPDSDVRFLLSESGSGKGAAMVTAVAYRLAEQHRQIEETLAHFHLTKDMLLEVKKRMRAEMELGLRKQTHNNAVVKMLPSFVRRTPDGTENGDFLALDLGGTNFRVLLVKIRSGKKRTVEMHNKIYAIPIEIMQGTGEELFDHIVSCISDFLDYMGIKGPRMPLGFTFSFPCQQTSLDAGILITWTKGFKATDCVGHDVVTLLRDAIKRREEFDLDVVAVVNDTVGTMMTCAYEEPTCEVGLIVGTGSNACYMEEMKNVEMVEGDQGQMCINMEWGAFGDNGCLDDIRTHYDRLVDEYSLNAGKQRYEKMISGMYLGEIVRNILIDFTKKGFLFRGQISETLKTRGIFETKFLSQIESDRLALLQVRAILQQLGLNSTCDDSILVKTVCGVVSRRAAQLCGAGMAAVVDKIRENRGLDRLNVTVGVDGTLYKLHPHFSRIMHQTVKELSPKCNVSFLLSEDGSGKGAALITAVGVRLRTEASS

For `COc1cc2c(cc1OC)-c1cc(N3CCc4ccccc4C3)nc(=O)n1CC2`, the IC50 entry was “inactive”.

(Values after PubChem BioAssay AID588356 (Sanford-Burnham Center for Chemical Genomics, 2011).)
